Like-named read-outs stand apart in the source and are kept apart here.

A word on the inhibition: it is the change of the read-out against control, counted positive when it falls.

For this experiment, the system named is TGFβ signal. As to the kind of experiment: TGFβ signal inhibitory activity, (SBE)4-Luc reporter in A549 cells (Test Examples 1A and 1B). It counts as cell-based, human. The conditions noted are these: Homo sapiens, A549, read-out: TGFβ inhibition rate, %. In outline: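 Stable A549 line carrying (SBE)4-Luc Smad3-binding reporter treated with compound plus TGFβ-1 (2 ng/ml) for 4 hr; luciferase read by chemiluminescence. Percent inhibition relative to TGFβ-only and untreated cells, tested at 3 µM and 10 µM, some also at 1 µM.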

[1] abbreviates: 3 µM, compounds of Reference Examples (Test Example 1B).
Where [2] appears, read: 10 µM, compounds of Reference Examples (Test Example 1B).
Where [3] appears, read: test compound 3 µM, TGFβ-1 2 ng/ml, 4 hr, Table 1A.
Where [4] appears, read: test compound 10 µM, TGFβ-1 2 ng/ml, 4 hr, Table 1A.
Where [5] appears, read: test compound 3 µM, Reference Examples, Table 1B.
[6] abbreviates: test compound 10 µM, Reference Examples, Table 1B.

Take `COc1cc2c(Oc3cc4ccccc4nc3C)ccnc2cc1OCC(CO)CO` [Compound r387]: the inhibition at 3 µM under setting [1] was found to be 99%. Besides, under setting [2], the inhibition at 10 µM was 100%.
`COc1cc2nccc(Oc3cc(C)c(C)nc3-c3cccnc3C)c2cc1OC` [Compound 44, 3-(6,7-Dimethoxy-quinolin-4-yloxy)-5,6,2'-trimethyl-[2,3']bipyridine]: under setting [3], the inhibition at 3 µM is 82%. In addition, the inhibition at 10 µM under setting [4] is 99%.
As to `COc1cc2nccc(Oc3ccc(SC)nc3-c3cccnc3)c2cc1OC` [r267], under setting [1], the inhibition at 3 µM amounted to 34%. The inhibition at 10 µM under setting [2] was 83%.
The matching figures for `COc1cc2nccc(Oc3cccnc3C)c2cc1OC` [r202]: 20% and 54%.
The matching figures for `COc1cc2c(Oc3cc4ccccc4nc3C)ccnc2cc1OCCNC(=N)N` [Compound r356]: -2% and 54%.
As for `COc1ccc2nccc(Oc3cc(C)c(C)nc3-c3ccccn3)c2n1` [Compound 121, 8-(5,6-Dimethyl-[2,2']bipyridinyl-3-yloxy)-2-methoxy-[1,5]naphthyridine], under setting [3], the inhibition at 3 µM amounted to 98%. Further, the inhibition at 10 µM under setting [4] came out at 100%.
`COc1cc2ncnc(Oc3ccc(C)cc3C(=O)c3ccccc3)c2cc1OC` [r161]: the inhibition at 3 µM under setting [5] is 25%. The inhibition at 10 µM under setting [6] is 83%.
On to `COc1cc2nccc(Oc3ccc(C)cc3C(O)CCCCCCCCCO)c2cc1OC` (centres unmarked) [r165], for which the inhibition at 3 µM under setting [1] stood at 38%. Also, under setting [2], the inhibition at 10 µM was found to be 89%.
On the same counts, the results for `COc1cc2nccc(Oc3ccc(C)nc3-c3ccccc3C)c2cc1OC` [Compound r224] are 69% and 96%.
As to `COc1cc2nccc(Oc3cccc(C(=O)c4ccccc4)c3)c2cc1OC` [r77], the inhibition at 3 µM under setting [5] turned out to be 0%. For the same molecule, the inhibition at 10 µM under setting [6] amounted to 46%.
Take `Cc1cc(Oc2ccnc3cccnc23)c(-c2ccccn2)nc1C` [Compound 30, 4-(5,6-Dimethyl-[2,2']bipyridin-3-yloxy)-[1,5]naphthyridine]: the inhibition at 3 µM under setting [3] was 84%. Further, the inhibition at 10 µM under setting [4] came to 99%.
On to `COc1cc2nccc(Oc3ccc(C)nc3-c3cccc(C(N)=O)c3)c2cc1OC` [Compound r233], for which the inhibition at 3 µM under setting [1] was determined as 98%. Further, the inhibition at 10 µM under setting [2] worked out at 100%.
On to `COc1cc2nccc(Oc3ccc(C)cc3C(=O)C(C)C)c2cc1OC` [Compound r53], for which the inhibition at 3 µM under setting [5] is 97%. The inhibition at 10 µM under setting [6] came to 100%.
With `COc1cc2nccc(Oc3ccc(C)nc3-c3ccc(O)cc3)c2cc1OC` [Compound r248], the inhibition at 3 µM under setting [1] amounted to 99%. Moreover, the inhibition at 10 µM under setting [2] was determined as 100%.
The matching figures for `COc1cc2nccc(Oc3ccc(C)cc3C(=O)c3ccc(OCCCl)cc3)c2cc1OC` [Compound r189]: 86% and 100%.
On to `COc1cc2nccc(Oc3cc(C)c(C)nc3-c3ncccn3)c2cc1OC` [r274], for which the inhibition at 3 µM under setting [1] stood at 97%.
In the case of `CCc1ccc(Oc2ccnc3cc(C(N)=O)c(OCc4ccccc4)cc23)c(-c2ncccn2)n1` [Compound 193, 6-Benzyloxy-4-(6-ethyl-2-pyrimidin-2-yl-pyridin-3-yloxy)-quinoline-7-carboxylic acid amide], the inhibition at 3 µM under setting [3] is 80%.
In the case of `COc1cc2c(Oc3ccc(C)cc3C(=O)c3ccccc3)ccnc2cc1OCCCCN1CCC(CO)CC1` [Compound r144], under setting [5], the inhibition at 3 µM turned out to be 99%. Moreover, the inhibition at 10 µM under setting [6] stood at 100%.
On the same counts, the results for `CCOC(=O)c1ccc(Cl)cc1Oc1ccnc2cc(OC)c(OC)cc12` [Compound r81] are 91% and 100%.
Regarding `Cc1cc(Oc2ccnc3cc(-c4ccncc4)ccc23)c(-c2ccccn2)nc1C` [Compound 19, 5,6-Dimethyl-3-(7-pyridin-4-yl-quinolin-4-yloxy)-[2,2']bipyridine], the inhibition at 3 µM under setting [3] stood at 100%. The inhibition at 10 µM under setting [4] was 100%.
On to `Cc1ccc(Oc2ccnc3ccc(OCCN4CCOCC4)cc23)c(-c2ncccn2)n1` [Compound 209, 4-(6-Methyl-2-pyrimidin-2-yl-pyridin-3-yloxy)-6-(2-morpholin-4--yl-ethoxy)-quinoline], for which the inhibition at 3 µM under setting [3] turned out to be 54%.
Take `COc1cc2nccc(Oc3ccc(C)nc3-c3cccc(C#N)c3)c2cc1OC` [Compound r234]: the inhibition at 3 µM under setting [1] was 87%. Under setting [2], the inhibition at 10 µM was 100%.
The matching figures for `COc1cc2nccc(Oc3ccc(-n4ccnc4)cc3I)c2cc1OC` [r171]: 11% and 76%.
As for `COc1cc2c(Oc3cc4ccccc4nc3C)ccnc2cc1OCCN1CCCC(CO)C1` (centres unmarked) [Compound r359], the inhibition at 3 µM under setting [1] was 100%. Further, under setting [2], the inhibition at 10 µM came to 100%.
Turning to `COc1cc2c(Oc3ccc(C)cc3C(=O)c3ccccc3)ccnc2cc1OCCCCN1CCNCC1` [Compound r147], the inhibition at 3 µM under setting [5] worked out at 98%. The inhibition at 10 µM under setting [6] came out at 100%.
`Cc1cc2nccc(Oc3cc(C)c(C)nc3-c3ccccn3)c2cc1C` [Compound 170, 3-(6,7-Dimethyl-quinolin-4-yloxy)-5,6-dimethyl-[2,2']bipyridine]: under setting [3], the inhibition at 3 µM was 98%. Also, the inhibition at 10 µM under setting [4] came to 100%.
In the case of `COc1cc2nccc(Oc3cc(Cl)c(C)cc3C(C)=O)c2cc1OC` [Compound r184], under setting [1], the inhibition at 3 µM is 100%. For the same molecule, the inhibition at 10 µM under setting [2] was 100%.
As for `COc1cc2nccc(Oc3cc4cccnc4nc3-c3ccccc3)c2cc1Br` [Compound 132, 3-(6-Bromo-7-methoxy-quinolin-4-yloxy)-2-phenyl-[1,8]naphthyridine], under setting [3], the inhibition at 3 µM was 98%. The inhibition at 10 µM under setting [4] stood at 100%.
`CCOC(=O)COc1cc2nccc(Oc3cc4ccccc4nc3C)c2cc1OC` [Compound r372]: under setting [1], the inhibition at 3 µM came to 14%. In addition, the inhibition at 10 µM under setting [2] is 93%.
On the same counts, the results for `COc1cc2nccc(Oc3cc4cccnc4nc3-c3ccccn3)c2cc1OC` [r421] are 94% and 100%.
For the molecule `COc1cc2nccc(Oc3ccc(C)cc3C(=O)c3ccco3)c2cc1OC` [Compound r60], under setting [5], the inhibition at 3 µM is 63%. In addition, the inhibition at 10 µM under setting [6] came out at 98%.
Take `COc1cc2c(Oc3cc4ccccc4nc3C)ccnc2cc1OCCCn1ccnc1` [Compound r381]: under setting [1], the inhibition at 3 µM came out at 100%. Further, the inhibition at 10 µM under setting [2] worked out at 100%.
As to `COc1cc2nccc(Oc3cc(C(C)(C)C)c(OC)cc3C(C)=O)c2cc1OC` [Compound r185], the inhibition at 3 µM under setting [1] was determined as 11%. Further, the inhibition at 10 µM under setting [2] amounted to 59%.
The matching figures for `COc1cc2nccc(Oc3cc4ccncc4cc3C)c2cc1OC` [Compound r300, 6,7-Dimethoxy-4-(7-methyl-isoquinolin-6-yloxy)-quinoline]: 9% and 63%.
In the case of `COc1cc2nccc(Oc3ccc(C)nc3-c3cc(C)no3)c2cc1OC` [r258], the inhibition at 3 µM under setting [1] was 99%. For the same molecule, under setting [2], the inhibition at 10 µM came out at 100%.
Consider `COc1cc2nccc(Oc3ccc4c(ccn4C)c3)c2cc1OC` [Compound r20, 6,7-Dimethoxy-4-[(1-methyl-5-indolyl)oxy]quinoline], for which the inhibition at 3 µM under setting [5] turned out to be 19%. Moreover, the inhibition at 10 µM under setting [6] came to 69%.
The matching figures for `COc1cc2c(Oc3ccc(C)cc3C(=O)c3ccccc3)ccnc2cc1OCCCCCl` [Compound r141]: 55% and 89%.
On the same counts, the results for `COc1cc2nccc(Oc3cccc4ccccc34)c2cc1OC` [Compound r16] are 0% and 62%.
As for `COc1cc2c(Oc3cc4cccnc4nc3C)ccnc2cc1OCCN1CCCCC1` [r440], the inhibition at 3 µM under setting [1] was found to be 100%. The inhibition at 10 µM under setting [2] worked out at 100%.
As for `COc1cc2c(Oc3cc(C)c(C)nc3-c3nc(C)c(C)s3)ccnc2cc1OCC1CO1` (centres unmarked) [Compound r458], the inhibition at 3 µM under setting [1] turned out to be 94%. Besides, under setting [2], the inhibition at 10 µM was found to be 100%.
Turning to `COc1cc2nccc(Oc3cc4c(nc3-c3ccccc3)NCCC4)c2cc1C(=O)NCc1ccccc1` [Compound 99, 7-Methoxy-4-(2-phenyl-5,6,7,8-tetrahydro-[1,8]naphthyridin-3-yloxy)-quinoline-6-carboxylate benzylamide], the inhibition at 3 µM under setting [3] was 76%. Moreover, the inhibition at 10 µM under setting [4] turned out to be 92%.
As to `COc1cc2nccc(Oc3cc(C)c(C)cc3-c3cccnc3)c2cc1OC` [r170], the inhibition at 3 µM under setting [1] amounted to 76%. Besides, the inhibition at 10 µM under setting [2] was found to be 100%.
The matching figures for `CCOC(=O)C1CCN(CCOc2cc3nccc(Oc4cc5ccccc5nc4C)c3cc2OC)CC1` [Compound r363]: 100% and 100%.
As to `Cc1ccc(-c2ccc3nccc(Oc4cc(C)c(C)nc4-c4ccccn4)c3c2)cc1` [Compound 8, 5,6-Dimethyl-3-(6-p-tolyl-quinolin-4-yloxy)-[2,2']bipyridine], under setting [3], the inhibition at 3 µM is 60%. Moreover, the inhibition at 10 µM under setting [4] was determined as 100%.
On the same counts, the results for `Cc1cc(Oc2ccnc3cc(-c4ncccn4)ccc23)c(-c2ccccn2)nc1C` [Compound 177, 5,6-Dimethyl-3-(7-pyrimidin-2-yl-quinolin-4-yloxy)-[2,2']blpyridine] are 98% and 100%.
On the same counts, the results for `Cc1cc(Oc2ccnc3ccc(-c4ccc[nH]4)cc23)c(-c2ccccn2)nc1C` [Compound 168, 5,6-Dimethyl-3-[6-(1H-pyrrol-2-yl)-quinolin-4-yloxy]-[2,2']bipyridine] are 92% and 100%.

Source of the values: patent EP1724268A1, “COMPOUND HAVING TGF-BETA INHIBITORY ACTIVITY AND PHARMACEUTICAL COMPOSITION CONTAINING SAME” (KIRIN BEER KABUSHIKI KAISHA, priority 2004, dated 2005).
